Results: patent publication US20140057915A1, “KINASE INHIBITORS” (TOPIVERT PHARMA LIMITED, priority 2012, published 2014)

Key:
[1] = test system: TNFα release, d-U937 cells; test: LPS-induced TNFα release in d-U937 cells; format: cell-based; conditions: Homo sapiens, dU937; relative to 10 μg/mL BIRB796; Table 4c1; read-out: LPS Induced Release of Cytokine in d-U937 Cells, TNFα REC50
Method in brief: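 U937 cells differentiated with PMA (100 ng/mL, 48–72 hr), pre-treated with compound for 2 hr, then stimulated with E. coli LPS (0.1 μg/mL) for 4 hr. Supernatant cytokine measured by sandwich ELISA; inhibition versus vehicle control, REC50 from concentration-response curve.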

[2] = biological target: cSrc (Homo sapiens, UniProt P12931); test: c-Src enzyme inhibition (FRET); format: biochemical; conditions: Table 4a1
Method in brief: (§1)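 Kinase activity is measured on a dual-labelled synthetic peptide by FRET. ATP is supplied as an 800 μM solution for c-Src and a 60 μM solution for Syk. Compound is tested at four added concentrations, 4 to 0.004 μg/mL.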

[3] = biological target: Syk (Homo sapiens, UniProt P43405); test: Syk enzyme inhibition (FRET); format: biochemical; conditions: Table 4a1
Method in brief: as §1

[4] = test system: IL-8 release, d-U937 cells; test: LPS-induced IL-8 release in d-U937 cells; format: cell-based; conditions: Homo sapiens, dU937; Table 4c1; read-out: LPS Induced Release of Cytokine in d-U937 Cells, IL-8 IC50
Method in brief: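 IL-8 release after a 4 hr challenge with LPS (0.1 μg/mL, E. coli 0111:B4) following a 2 hr compound pretreatment. Cells were human U937 monocytes differentiated to macrophage-type with PMA 100 ng/mL for 48–72 hr. Relative 50% effective concentration derived from concentration–response data.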

[5] = test system: d-U937 cells; test: Cell viability: MTT assay; format: cell-based, human; conditions: 1 μg/mL
Method in brief: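 Differentiated U937 cells exposed to compound at 1 or 10 μg/mL, either 4 h in 5% FCS or 24 h in 10% FCS RPMI1640. MTT then added for 1 h, formazan dissolved in DMSO and read at 550 nm. Viability loss given as % versus 0.5% DMSO vehicle; apparent gains appear negative.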

[6] = biological target: GSK3α (Homo sapiens, UniProt P49840); test: GSK 3α enzyme inhibition (FRET), Method 1; format: biochemical; conditions: Table 4a1
Method in brief: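 Inhibition is scored from phosphorylation of a dual-labelled synthetic peptide, measured by FRET after protease cleavage of unphosphorylated substrate. Incubations are 2 hr compound with enzyme, then 1 hr kinase reaction.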

[7] = test system: ICAM-1 expression, BEAS2B cells; test: Poly I:C-induced ICAM-1 expression in BEAS2B cells; format: cell-based; conditions: Homo sapiens, BEAS-2B; read-out: Poly IC induced ICAM1 in BEAS2B, IC50
Method in brief: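 BEAS2B human bronchial epithelial cells pre-incubated 2 h with compound, then transfected with poly I:C (1 μg/mL) plus Oligofectamine. After 18 h, cell-surface ICAM-1 read by cell-based ELISA (A450–655), normalised to Crystal Violet cell number (A595); inhibition calculated against vehicle control at each concentration.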

Chain of GSK3α (P49840 whole entry): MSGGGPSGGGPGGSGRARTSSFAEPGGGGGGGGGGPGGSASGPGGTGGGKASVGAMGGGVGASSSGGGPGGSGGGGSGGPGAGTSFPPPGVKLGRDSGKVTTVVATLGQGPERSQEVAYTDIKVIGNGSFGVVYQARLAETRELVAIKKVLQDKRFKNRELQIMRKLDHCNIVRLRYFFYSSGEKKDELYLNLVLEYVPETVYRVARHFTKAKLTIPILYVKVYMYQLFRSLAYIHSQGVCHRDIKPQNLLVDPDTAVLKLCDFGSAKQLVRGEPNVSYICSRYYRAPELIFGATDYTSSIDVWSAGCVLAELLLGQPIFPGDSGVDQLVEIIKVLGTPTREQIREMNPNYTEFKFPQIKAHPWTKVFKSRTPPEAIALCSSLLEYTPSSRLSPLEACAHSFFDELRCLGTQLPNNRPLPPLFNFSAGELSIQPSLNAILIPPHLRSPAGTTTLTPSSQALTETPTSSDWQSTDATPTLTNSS
Chain of cSrc (P12931 whole entry): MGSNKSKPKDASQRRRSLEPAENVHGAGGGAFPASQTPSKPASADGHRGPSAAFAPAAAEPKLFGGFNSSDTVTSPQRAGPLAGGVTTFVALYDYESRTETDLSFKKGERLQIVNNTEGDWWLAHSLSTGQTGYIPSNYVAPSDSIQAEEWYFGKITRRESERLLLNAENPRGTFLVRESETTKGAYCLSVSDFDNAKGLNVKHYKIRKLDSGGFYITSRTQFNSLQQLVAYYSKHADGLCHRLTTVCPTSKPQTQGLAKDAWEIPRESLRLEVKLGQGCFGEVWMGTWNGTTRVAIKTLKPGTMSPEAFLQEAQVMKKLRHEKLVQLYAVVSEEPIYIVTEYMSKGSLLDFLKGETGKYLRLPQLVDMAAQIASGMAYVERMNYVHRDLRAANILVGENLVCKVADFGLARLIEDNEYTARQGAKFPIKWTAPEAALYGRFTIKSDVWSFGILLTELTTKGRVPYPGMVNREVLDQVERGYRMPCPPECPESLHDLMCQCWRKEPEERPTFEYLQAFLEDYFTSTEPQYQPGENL

Row | EC50 [1] [nM] | IC50 [2] [nM] | IC50 [3] [nM] | IC50 [4] [nM] | IC50 [6] [nM] | SMILES | Cell viability at time point in d-U937 cells, 4 h [5] | Cell viability at time point in d-U937 cells, 24 h [5] | IC50 [7] [nM]
1 | 1.4 | 7 | 13 | 1.8 | 995 | Cc1ccc(-n2nc(C(C)(C)C)cc2NC(=O)Nc2ccc(Oc3ccnc(Nc4cc(Br)cc(C(=O)NCCN5CCOCC5)c4)n3)c3ccccc23)cc1 [Example 62, 3-bromo-5-((4-((4-(3-(3-(tert-butyl)-1-(p-tolyl)-1H-pyrazol-5-yl)ureido)naphthalen-1-yl)oxy)pyrimidin-2-yl)amino)-N-(2-morpholinoethyl)benzamide] | −ve (−ve and +ve indicate that the value is below and above respectively, the no significant effect threshold, defined as 30% inhibition at 1 μg/mL at the time point indicated) | +ve (−ve and +ve indicate that the value is below and above respectively, the no significant effect threshold, defined as 30% inhibition at 1 μg/mL at the time point indicated) | 1
2 | 0.4 | 2 | 13 | 0.8 | 122 | COc1cc(Nc2nccc(Oc3ccc(NC(=O)Nc4cc(C(C)(C)C)nn4-c4ccc(C)cc4)c4ccccc34)n2)cc(C(=O)NCCO)c1 [Example 64, 3-((4-((4-(3-(3-(tert-butyl)-1-(p-tolyl)-1H-pyrazol-5-yl)ureido)naphthalen-1-yl)oxy)pyrimidin-2-yl)amino)-N-(2-hydroxyethyl)-5-methoxybenzamide] | −ve (−ve and +ve indicate that the value is below and above respectively, the no significant effect threshold, defined as 30% inhibition at 1 μg/mL at the time point indicated) | −ve (−ve and +ve indicate that the value is below and above respectively, the no significant effect threshold, defined as 30% inhibition at 1 μg/mL at the time point indicated) | 1
3 | 0.1 | 4 | 40 | 1 | 452 | COCCNC(=O)c1cc(Nc2nccc(Oc3ccc(NC(=O)Nc4cc(C(C)(C)C)nn4-c4ccc(C)cc4)c4ccccc34)n2)cc(OC)c1 [Example 67, 3-((4-((4-(3-(3-(tert-butyl)-1-(p-tolyl)-1H-pyrazol-5-yl)ureido)naphthalen-1-yl)oxy)pyrimidin-2-yl)amino)-5-methoxy-N-(2-methoxyethyl)benzamide] | −ve (−ve and +ve indicate that the value is below and above respectively, the no significant effect threshold, defined as 30% inhibition at 1 μg/mL at the time point indicated) | −ve (−ve and +ve indicate that the value is below and above respectively, the no significant effect threshold, defined as 30% inhibition at 1 μg/mL at the time point indicated) | 140
4 | 1.1 | 9 | 32 | 2 | 6940 | COc1ccc(-n2nc(C(C)C)cc2NC(=O)Nc2ccc(Oc3ccnc(Nc4cc(Cl)cc(C(=O)NCCN5CCOCC5)c4)n3)c3ccccc23)cc1 [Example 61, 3-chloro-5-((4-((4-(3-(3-isopropyl-1-(4-methoxyphenyl)-1H-pyrazol-5-yl)ureido)naphthalen-1-yl)oxy)pyrimidin-2-yl)amino)-N-(2-morpholinoethyl)benzamide] | −ve (−ve and +ve indicate that the value is below and above respectively, the no significant effect threshold, defined as 30% inhibition at 1 μg/mL at the time point indicated) | −ve (−ve and +ve indicate that the value is below and above respectively, the no significant effect threshold, defined as 30% inhibition at 1 μg/mL at the time point indicated) | 129

The next lines start with the compound.

Row | SMILES | EC50 [1] [nM] | IC50 [2] [nM] | IC50 [3] [nM] | IC50 [4] [nM] | IC50 [6] [nM] | Cell viability at time point in d-U937 cells, 4 h [5] | Cell viability at time point in d-U937 cells, 24 h [5] | IC50 [7] [nM]
5 | COc1ccc(C(=O)NCCO)cc1Nc1nccc(Oc2ccc(NC(=O)Nc3cc(C(C)(C)C)nn3-c3ccc(C)cc3)c3ccccc23)n1 [Example 33, 3-((4-((4-(3-(3-(tert-butyl)-1-(p-tolyl)-1H-pyrazol-5-yl)ureido)naphthalen-1-yl)oxy)pyrimidin-2-yl)amino)-N-(2-hydroxyethyl)-4-methoxybenzamide] | 1.5 | 3 | 98 | 4.2 | > 14300 | −ve (−ve and +ve indicate that the value is below and above respectively, the no significant effect threshold, defined as 30% inhibition at 1 μg/mL at the time point indicated) | −ve (−ve and +ve indicate that the value is below and above respectively, the no significant effect threshold, defined as 30% inhibition at 1 μg/mL at the time point indicated) | 143
6 | COc1ccc(-n2nc(C(C)C)cc2NC(=O)Nc2ccc(Oc3ccnc(Nc4ccc(C(=O)NCCN5CCOCC5)cc4OC)n3)c3ccccc23)cc1 [Example 38, 4-((4-((4-(3-(3-isopropyl-1-(4-methoxyphenyl)-1H-pyrazol-5-yl)ureido)naphthalen-1-yl)oxy)pyrimidin-2-yl)amino)-3-methoxy-N-(2-morpholinoethyl)benzamide] | 20.2 | 9 | 54 | 60.6 | > 13000 | −ve (−ve and +ve indicate that the value is below and above respectively, the no significant effect threshold, defined as 30% inhibition at 1 μg/mL at the time point indicated) | −ve (−ve and +ve indicate that the value is below and above respectively, the no significant effect threshold, defined as 30% inhibition at 1 μg/mL at the time point indicated) | 35.7
7 | COc1ccc(-n2nc(C3CCCO3)cc2NC(=O)Nc2ccc(Oc3ccnc(Nc4cc(OC)cc(C(=O)NCCN5CCOCC5)c4)n3)c3ccccc23)cc1 (stereo not drawn) [Example 58, 3-methoxy-5-((4-((4-(3-(1-(4-methoxyphenyl)-3-(tetrahydrofuran-2-yl)-1H-pyrazol-5-yl)ureido)naphthalen-1-yl)oxy)pyrimidin-2-yl)amino)-N-(2-morpholinoethyl)benzamide] | 11.7 | < 1 | 296 | 46.3 | 8470 | −ve (−ve and +ve indicate that the value is below and above respectively, the no significant effect threshold, defined as 30% inhibition at 1 μg/mL at the time point indicated) | −ve (−ve and +ve indicate that the value is below and above respectively, the no significant effect threshold, defined as 30% inhibition at 1 μg/mL at the time point indicated) | 2.1
8 | COc1cc(C(=O)NCCO)ccc1Nc1nccc(Oc2ccc(NC(=O)Nc3cc(C(C)(C)C)nn3-c3ccc(C)cc3)c3ccccc23)n1 [Example 4, 4-((4-((4-(3-(3-(tert-Butyl)-1-(p-tolyl)-1H-pyrazol-5-yl)ureido)naphthalen-1-yl)oxy)pyrimidin-2-yl)amino)-N-(2-hydroxyethyl)-3-methoxybenzamide] | 0.7 | 49 | 124 | 6.6 | > 14300 | −ve (−ve and +ve indicate that the value is below and above respectively, the no significant effect threshold, defined as 30% inhibition at 1 μg/mL at the time point indicated) | −ve (−ve and +ve indicate that the value is below and above respectively, the no significant effect threshold, defined as 30% inhibition at 1 μg/mL at the time point indicated) | 4.6
9 | COc1cc(Nc2nccc(Oc3ccc(NC(=O)Nc4cc(C(C)(C)C)nn4-c4ccc(C)cc4)c4ccccc34)n2)cc(C(=O)NCCN2CCOCC2)c1 [Example 52, 3-((4-((4-(3-(3-(tert-butyl)-1-(p-tolyl)-1H-pyrazol-5-yl)ureido)naphthalen-1-yl)oxy)pyrimidin-2-yl)amino)-5-methoxy-N-(2-morpholinoethyl)benzamide] | 0.3 | 3 | 6 | 1.5 | 247 | −ve (−ve and +ve indicate that the value is below and above respectively, the no significant effect threshold, defined as 30% inhibition at 1 μg/mL at the time point indicated) | −ve (−ve and +ve indicate that the value is below and above respectively, the no significant effect threshold, defined as 30% inhibition at 1 μg/mL at the time point indicated) | 5
